Measured values from PMC5691209, “Specific Targeting of Melanotic Cells with Peptide Ligated Photosensitizers for Photodynamic Therapy” (Scientific Reports, 2017).

Assays:
[1] = system: B16-F10 mouse melanoma cells; assay: Melanin assay (extra- and intracellular melanin production); assay type: cell-based; settings: B16-F10, 72 h at 37 °C, OD at 475 nm, α-MSH 10 nM, NAP, HPPH-NAP, MB, HPPH 1 µM, mean of three independent experiments
Protocol: B16-F10 mouse melanoma cells or human mid-pigmented melanoma cells FM55 were seeded in Nunc 6-well tissue culture plates using DMEM medium without phenol red. After overnight incubation of the cells at 37 °C, various photosensitizers (1 µM) or peptide conjugated photosensitizers (1 µM) were added at room temperature and the cells were incubated at 37 °C for 72 h. After three days of incubation, supernatants of cell (200 µL) were pipetted out from Nunc 6-well tissue culture plates as extracellular melanin pigment and three concurrent absorption measurements were taken at 475 nm using a Spectra Max MS microplate/cuvette reader (Fig. 3c,e). Adherent cells in the Nunc 6-well plates were detached with 0.02% EDTA and centrifuged at 2000 rpm for 3 min. […] Three concurrent absorption measurements were taken at 475 nm using a Spectra Max MS microplate/cuvette reader (Fig. 3d,f). […]
B16-F10 and FM55 melanin assays are represented as the average of three independent experiments expressed as Mean ± SEM. Differences between various groups were calculated using one way ANOVA post Bonferroni’s multiple comparison test and results were reported as significant if P-value was below 0.05. Phototoxicity SRB data of B16-F10, MeL, FM55 and N/TERT-1 was analyzed via student t test and significance was reported if P-value was below 0.05.

B16-F10 melanoma cells = assay: Cell proliferation with LED light irradiation (Incucyte confluence); assay type: cell-based, mouse; settings: 5 µM
Protocol: B16-F10 murine melanoma cells were seeded at a density of 3000–4000 cells per well in 96-well black-view Perkin-Elmer plates using DMEM medium without phenol red. After an overnight incubation at 37 °C, the medium was aspirated from the wells and varying concentrations of synthetic peptide-photosensitizer constructs diluted in DMEM medium were added to the cells. The cells were incubated in dark at 37 °C for 4 h and then washed twice with 1X PBS buffer (200 µL). Fresh medium (300 µL) was added to the wells before placing the plates in the Incucyte ZOOM live cell imaging machine to capture the images after every hour. Percentage of confluence was measured over a time period of 24–72 h. For skin keratinocyte cell line N/TERT-1, the starting confluence was 75–85% of cell density for the initial light experiments. The higher cell density was used to mimic the physiological condition in the body, where keratinocytes are present in much larger numbers (30:1) than melanocytes.
This combinatorial equipment comprises light irradiation system with multiple wavelengths LED (From UVA to near IR) assembled with well-established incucyte that contains incubator and light microscope. […] Incucyte light microscope was used to capture images of the cell growth at every hour or two, from which percentage confluence (i.e. cell densities) were calculated. […]

Row | Compound | extra- and intracellular melanin production [1] | light induced cytotoxicity (cell proliferation) (B16-F10 melanoma cells; B16-F10, 627 nm LED light 0.10 mW/cm^2, 48 h continuously) | light induced cytotoxicity (cell proliferation) (B16-F10 melanoma cells; B16-F10, 660 nm LED light 0.10 mW/cm^2, 48 h continuously)
1 | CN(C)c1ccc2nc3ccc(=[N+](C)C)cc-3sc2c1 [MB, methylene blue] | did not induce any melanin production | – | –
2 | 2-(1-hexyloxyethyl)-2-devinyl pyropheophorbide [HPPH] | did not induce any melanin production | cytotoxicity was observed | cytotoxicity was observed
